Key:
[1] = Masking effect on benzoic acid, trained panel; set-up: species or system human; conditions: base benzoic acid 250 ppm in water, test sample 0.5 ppm; for Masking Intensity: panel average, scale 0-5
Excerpt: (§1) Preparation of Test Samples: […], oroxylin A-7 glucouronide, wogonoside, baicalein, oroxylin A and wogonin were purchased commercially. S. baicalensis extract (“Extract”) and cabohydrase-treated S. baicalensis extract (“Treated Extract”) were obtained as above in Example 1.
(§2) Subsequently, all compounds and extracts were applied to different bases for evaluating their off-taste masking functions.
(§3) Testing Procedure: The masking effects on the off-tastes (bitterness, sourness, astringency, lingering and drying aftertaste, etc.) associated with various food components was evaluated by a group of 16 trained panelist. Each provided a rank of masking intensity using the intensity scales of 0 to 5, where 0 represents “no masking effect,” 1 represents “minimal masking intensity” and 5 represents “the most masking intensity.” The average of the reported making intensity is presented in the following examples.
A base solution of benzoic acid was prepared in water (250 ppm). […] The flavor profile of the benzoic acid solutions with compounds or extracts was further evaluated and is reported in the following: […]

[2] = Masking effect on sorbic acid, trained panel; set-up: species or system human; conditions: base sorbic acid 150 ppm in water; for Masking Intensity: panel average, scale 0-5
Excerpt: as §1, §2, §3
A base solution of sorbic acid was prepared in water (150 ppm). […] The flavor profile of the sorbic acid solutions with compounds or extracts were further evaluated and is reported in the following: […]

[3] = Masking effect on Reb A, trained panel; set-up: species or system human; conditions: base Reb A 200 ppm in water; for Masking Intensity: panel average, scale 0-5
Excerpt: as §1, §2, §3
A base solution of Reb A was prepared in water (200 ppm). […] The flavor profile of the Reb A solutions with compounds or extracts were further evaluated and is reported in the following: […]

[4] = Masking effect on pea protein, trained panel; set-up: species or system human; conditions: base TRUPRO pea protein 5% in water, test sample 0.5 ppm; for Masking Intensity: panel average, scale 0-5
Excerpt: as §1, §2, §3
A base solution of TRUPRO® pea protein (Solae LLC) was prepared in water (5%). […] The flavor profile of the pea protein solutions with compounds or extracts were further evaluated and is reported in the following: […]

[5] = Masking effect on citric acid, trained panel; set-up: species or system human; conditions: base citric acid 300 ppm in water; for Masking Intensity: panel average, scale 0-5
Excerpt: as §1, §2, §3
A base solution of citric acid was prepared in water (300 ppm). […] The flavor profile of the citric acid solutions with compounds or extracts were further evaluated and is reported in the following: […]

[6] = Masking effect on Acesulfame-K, trained panel; set-up: species or system human; conditions: base Acesulfame-K 300 ppm in water, test sample 0.5 ppm; for Masking Intensity: panel average, scale 0-5
Excerpt: as §1, §2, §3
A base solution of Acesulfame-K was prepared in water (300 ppm). […] The flavor profile of the Acesulfame-K solutions with compounds or extracts were further evaluated and is reported in the following: […]

[7] = Masking effect on Reb M, trained panel; set-up: species or system human; conditions: base Reb M 200 ppm in water; for Masking Intensity: panel average, scale 0-5
Excerpt: as §1, §2, §3
A base solution of Reb M was prepared in water (200 ppm). […] The flavor profile of the Reb M solutions with compounds or extracts were further evaluated and is reported in the following: […]

[8] = Taste modulating activity of the individual compounds; conditions: individual compounds, Example 1
Experimental: With bio-transformation, most baicalin was converted to baicalein; oroxylin A glucuronide was converted to oroxylin A; and wogonoside was converted to wogonin. The activity of the individual compounds was also analyzed for taste modulating activity.

healthy subjects = conditions: oral doses in the range of 100-2800 mg; cited from earlier work
[9] = Taste modulation in applications (Table 3), malic/citric acid base; conditions: base malic acid 1000 ppm and citric acid 2000 ppm in water; 1 ppm, composition composed only of wogonin

With `O=c1cc(-c2ccccc2)oc2cc(O)c(O)c(O)c12` [Baicalein, 5,6,7-trihydroxyflavone] the “Masking Intensity” value [1] was 3, the “Masking Intensity” value ([2]; test sample 0.001 ppm) was 0 and the “Masking Intensity” value ([2]; test sample 0.01 ppm) was 1. For the same compound, the “Masking Intensity” value ([2]; test sample 0.1 ppm) was 2, the “Masking Intensity” value ([2]; test sample 0.5 ppm) was 3 and the “Flavor Profile” value ([2]; test sample 1 ppm) was “Reduced astringency, sourness, and drying”. For the same compound, the “Masking Intensity” value ([2]; test sample 1 ppm) was 4, the “Flavor Profile” value ([2]; test sample 10 ppm) was “Reduced astringency, sourness, and drying” and the “Masking Intensity” value ([2]; test sample 10 ppm) was 4. The “Flavor Profile” value ([2]; test sample 50 ppm) was “Reduced astringency, sourness, and drying”, the “Masking Intensity” value ([2]; test sample 50 ppm) was 3 and the “Masking Intensity” value ([3]; test sample 0.5 ppm) was 3. The “Flavor Profile” value [4] was “Reduced astringency and bitterness, less”, the “Masking Intensity” value [4] was 3 and the “Masking Intensity” value ([5]; test sample 0.01 ppm) was 1. The “Flavor Profile” value ([5]; test sample 0.1 ppm) was “Slightly reduced tart taste”, the “Masking Intensity” value ([5]; test sample 0.1 ppm) was 2 and the “Flavor Profile” value ([5]; test sample 0.5 ppm) was “Reduced tart taste”. For the same compound, the “Masking Intensity” value ([5]; test sample 0.5 ppm) was 3, the “Flavor Profile” value ([5]; test sample 1 ppm) was “Reduced tart taste” and the “Masking Intensity” value ([5]; test sample 1 ppm) was 4. The “Flavor Profile” value ([5]; test sample 10 ppm) was “Reduced tart taste, very slight bitterness”, the “Masking Intensity” value ([5]; test sample 10 ppm) was 3 and the “Flavor Profile” value ([5]; test sample 50 ppm) was “Reduced tart taste, noticeable bitterness”. The “Masking Intensity” value ([5]; test sample 50 ppm) was 2, the “Flavor Profile” value [6] was “Slightly reduced bitterness and lingering” and the “Masking Intensity” value [6] was 2. The “Flavor Profile” value ([7]; test sample 0.5 ppm) was “Slightly reduced bitterness and lingering”, the “Masking Intensity” value ([7]; test sample 0.5 ppm) was 3 and the taste modulating activity [8] was “more active”. For the same compound, the safety and tolerability (healthy subjects) was “safe and well-tolerated”.

With `COc1c(O)cc(O)c2c(=O)cc(-c3ccccc3)oc12` [Wogonin, 5,7-dihydroxy-8-methoxyflavone] the Functions [9] was “Masked the sharp sourness, added mouthfeel”, the “Flavor Profile” value [1] was “Reduced astringency, sourness, and drying” and the “Masking Intensity” value [1] was 5. For the same compound, the “Flavor Profile” value ([2]; test sample 0.5 ppm) was “Reduced astringency, sourness, and drying”, the “Masking Intensity” value ([2]; test sample 0.5 ppm) was 5 and the “Masking Intensity” value ([3]; test sample 0.001 ppm) was 1. The “Flavor Profile” value ([3]; test sample 0.01 ppm) was “Slightly reduced astringency, licorice flavor”, the “Masking Intensity” value ([3]; test sample 0.01 ppm) was 2 and the “Masking Intensity” value ([3]; test sample 0.1 ppm) was 3. For the same compound, the “Masking Intensity” value ([3]; test sample 0.5 ppm) was 4, the “Masking Intensity” value ([3]; test sample 1 ppm) was 5 and the “Masking Intensity” value ([3]; test sample 10 ppm) was 3. For the same compound, the “Masking Intensity” value ([3]; test sample 50 ppm) was 2, the “Flavor Profile” value [4] was “Reduced astringency and bitterness, less” and the “Masking Intensity” value [4] was 5. The “Flavor Profile” value ([5]; test sample 0.5 ppm) was “Reduced tart taste, more pleasant”, the “Masking Intensity” value ([5]; test sample 0.5 ppm) was 4 and the “Flavor Profile” value [6] was “Reduced bitterness and lingering aftertaste,”. For the same compound, the “Masking Intensity” value [6] was 4, the “Masking Intensity” value ([7]; test sample 0.01 ppm) was 1 and the “Flavor Profile” value ([7]; test sample 0.1 ppm) was “Slightly reduced bitterness and lingering”. The “Masking Intensity” value ([7]; test sample 0.1 ppm) was 3, the “Flavor Profile” value ([7]; test sample 0.5 ppm) was “Reduced bitterness and lingering aftertaste,” and the “Masking Intensity” value ([7]; test sample 0.5 ppm) was 5. The “Flavor Profile” value ([7]; test sample 10 ppm) was “Slightly reduced lingering aftertaste, very”, the “Masking Intensity” value ([7]; test sample 10 ppm) was 2 and the “Flavor Profile” value ([7]; test sample 50 ppm) was “Slightly reduced lingering aftertaste,”. The “Masking Intensity” value ([7]; test sample 50 ppm) was 1 and the taste modulating activity [8] was “more active”.

Reference: patent US20250241347A1, “COMPOSITIONS AND METHODS FOR TASTE MODULATION” (INTERNATIONAL FLAVORS & FRAGRANCES INC., priority 2019, published 2025)
